Experimental data reported in article PMC12454493, “Insight on novel sulfamoylphenyl pyrazole derivatives as anticancer carbonic anhydrase inhibitors” (Molecular Diversity, 2024).
Several values for one entry are separate records, joined by “and”; a condition that tells them apart may be missing. Equal entries are not always repeated.

How the values were obtained:
A549/ATCC = test: NCI-60 one-dose SRB screen (Non-Small Cell Lung Cancer); format: cell-based; conditions: Homo sapiens, single dose 10 µM, 48 h, read-out: Growth inhibition percent (GI %)
EKVX = test: as above; format: cell-based; conditions: Homo sapiens, single dose 10 µM, 48 h, read-out: Growth inhibition percent (GI %)
HOP-62 = test: as above; format: cell-based; conditions: Homo sapiens, single dose 10 µM, 48 h, read-out: Growth inhibition percent (GI %)
HOP-92 = test: as above; format: cell-based; conditions: Homo sapiens, single dose 10 µM, 48 h, read-out: Growth inhibition percent (GI %)
NCI-H226 = test: as above; format: cell-based; conditions: Homo sapiens, single dose 10 µM, 48 h, read-out: Growth inhibition percent (GI %)
NCI-H23 = test: as above; format: cell-based; conditions: Homo sapiens, single dose 10 µM, 48 h, read-out: Growth inhibition percent (GI %)
NCI-H322M = test: as above; format: cell-based; conditions: Homo sapiens, single dose 10 µM, 48 h, read-out: Growth inhibition percent (GI %)
NCI-H460 = test: as above; format: cell-based; conditions: Homo sapiens, single dose 10 µM, 48 h, read-out: Growth inhibition percent (GI %)
NCI-H522 = test: as above; format: cell-based; conditions: Homo sapiens, single dose 10 µM, 48 h, read-out: Growth inhibition percent (GI %)
COLO 205 = test: NCI-60 one-dose SRB screen (Colon Cancer); format: cell-based; conditions: Homo sapiens, single dose 10 µM, 48 h, read-out: Growth inhibition percent (GI %)
HCC-2998 = test: NCI-60 one-dose SRB screen (Colon Cancer); format: cell-based; conditions: Homo sapiens, single dose 10 µM, 48 h, read-out: Growth inhibition percent (GI %)
HCT-116 = test: NCI-60 one-dose SRB screen (Colon Cancer); format: cell-based; conditions: Homo sapiens, single dose 10 µM, 48 h, read-out: Growth inhibition percent (GI %)
HCT-15 = test: NCI-60 one-dose SRB screen (Colon Cancer); format: cell-based; conditions: Homo sapiens, single dose 10 µM, 48 h, read-out: Growth inhibition percent (GI %)
KM12 = test: NCI-60 one-dose SRB screen (Colon Cancer); format: cell-based; conditions: Homo sapiens, single dose 10 µM, 48 h, read-out: Growth inhibition percent (GI %)
SW-620 = test: NCI-60 one-dose SRB screen (Colon Cancer); format: cell-based; conditions: Homo sapiens, single dose 10 µM, 48 h, read-out: Growth inhibition percent (GI %)
SF-268 = test: NCI-60 one-dose SRB screen (CNS Cancer); format: cell-based; conditions: Homo sapiens, single dose 10 µM, 48 h, read-out: Growth inhibition percent (GI %)
SF-295 = test: NCI-60 one-dose SRB screen (CNS Cancer); format: cell-based; conditions: Homo sapiens, single dose 10 µM, 48 h, read-out: Growth inhibition percent (GI %)
SF-539 = test: NCI-60 one-dose SRB screen (CNS Cancer); format: cell-based; conditions: Homo sapiens, single dose 10 µM, 48 h, read-out: Growth inhibition percent (GI %)
SNB-19 = test: NCI-60 one-dose SRB screen (CNS Cancer); format: cell-based; conditions: Homo sapiens, single dose 10 µM, 48 h, read-out: Growth inhibition percent (GI %)
SNB-75 = test: NCI-60 one-dose SRB screen (CNS Cancer); format: cell-based; conditions: Homo sapiens, single dose 10 µM, 48 h, read-out: Growth inhibition percent (GI %)
U251 = test: NCI-60 one-dose SRB screen (CNS Cancer); format: cell-based; conditions: Homo sapiens, U-251, single dose 10 µM, 48 h, read-out: Growth inhibition percent (GI %)
LOX IMVI = test: NCI-60 one-dose SRB screen (Melanoma); format: cell-based; conditions: Homo sapiens, single dose 10 µM, 48 h, read-out: Growth inhibition percent (GI %)
M14 = test: NCI-60 one-dose SRB screen (Melanoma); format: cell-based; conditions: Homo sapiens, single dose 10 µM, 48 h, read-out: Growth inhibition percent (GI %)
MALME-3M = test: NCI-60 one-dose SRB screen (Melanoma); format: cell-based; conditions: Homo sapiens, single dose 10 µM, 48 h, read-out: Growth inhibition percent (GI %)
MDA-MB-435 = test: NCI-60 one-dose SRB screen (Melanoma); format: cell-based; conditions: Homo sapiens, single dose 10 µM, 48 h, read-out: Growth inhibition percent (GI %)
SK-MEL-28 = test: NCI-60 one-dose SRB screen (Melanoma); format: cell-based; conditions: Homo sapiens, single dose 10 µM, 48 h, read-out: Growth inhibition percent (GI %)
SK-MEL-2 = test: NCI-60 one-dose SRB screen (Melanoma); format: cell-based; conditions: Homo sapiens, single dose 10 µM, 48 h, read-out: Growth inhibition percent (GI %)
SK-MEL-5 = test: NCI-60 one-dose SRB screen (Melanoma); format: cell-based; conditions: Homo sapiens, single dose 10 µM, 48 h, read-out: Growth inhibition percent (GI %)
UACC-257 = test: NCI-60 one-dose SRB screen (Melanoma); format: cell-based; conditions: Homo sapiens, single dose 10 µM, 48 h, read-out: Growth inhibition percent (GI %)
IGROV1 = test: NCI-60 one-dose SRB screen (Ovarian cancer); format: cell-based; conditions: Homo sapiens, IGROV-1, single dose 10 µM, 48 h, read-out: Growth inhibition percent (GI %)
NCI/ADR-RES = test: NCI-60 one-dose SRB screen (Ovarian cancer); format: cell-based; conditions: Homo sapiens, single dose 10 µM, 48 h, read-out: Growth inhibition percent (GI %)
OVCAR-3 = test: NCI-60 one-dose SRB screen (Ovarian cancer); format: cell-based; conditions: Homo sapiens, single dose 10 µM, 48 h, read-out: Growth inhibition percent (GI %)
OVCAR-4 = test: NCI-60 one-dose SRB screen (Ovarian cancer); format: cell-based; conditions: Homo sapiens, single dose 10 µM, 48 h, read-out: Growth inhibition percent (GI %)
OVCAR-5 = test: NCI-60 one-dose SRB screen (Ovarian cancer); format: cell-based; conditions: Homo sapiens, single dose 10 µM, 48 h, read-out: Growth inhibition percent (GI %)
OVCAR-8 = test: NCI-60 one-dose SRB screen (Ovarian cancer); format: cell-based; conditions: Homo sapiens, single dose 10 µM, 48 h, read-out: Growth inhibition percent (GI %)
SK-OV-3 = test: NCI-60 one-dose SRB screen (Ovarian cancer); format: cell-based; conditions: Homo sapiens, single dose 10 µM, 48 h, read-out: Growth inhibition percent (GI %)
A498 = test: NCI-60 one-dose SRB screen (Renal Cancer); format: cell-based; conditions: Homo sapiens, single dose 10 µM, 48 h, read-out: Growth inhibition percent (GI %)
ACHN = test: NCI-60 one-dose SRB screen (Renal Cancer); format: cell-based; conditions: Homo sapiens, single dose 10 µM, 48 h, read-out: Growth inhibition percent (GI %)
CAKI-1 = test: NCI-60 one-dose SRB screen (Renal Cancer); format: cell-based; conditions: Homo sapiens, single dose 10 µM, 48 h, read-out: Growth inhibition percent (GI %)
RXF 393 = test: NCI-60 one-dose SRB screen (Renal Cancer); format: cell-based; conditions: Homo sapiens, single dose 10 µM, 48 h, read-out: Growth inhibition percent (GI %)
SN12C = test: NCI-60 one-dose SRB screen (Renal Cancer); format: cell-based; conditions: Homo sapiens, single dose 10 µM, 48 h, read-out: Growth inhibition percent (GI %)
TK-10 = test: NCI-60 one-dose SRB screen (Renal Cancer); format: cell-based; conditions: Homo sapiens, single dose 10 µM, 48 h, read-out: Growth inhibition percent (GI %)
UO-31 = test: NCI-60 one-dose SRB screen (Renal Cancer); format: cell-based; conditions: Homo sapiens, single dose 10 µM, 48 h, read-out: Growth inhibition percent (GI %)
DU-145 = test: NCI-60 one-dose SRB screen (Prostate Cancer); format: cell-based; conditions: Homo sapiens, single dose 10 µM, 48 h, read-out: Growth inhibition percent (GI %)
PC-3 = test: NCI-60 one-dose SRB screen (Prostate Cancer); format: cell-based; conditions: Homo sapiens, single dose 10 µM, 48 h, read-out: Growth inhibition percent (GI %)
hCA XII = hCA XII (Homo sapiens, UniProt O43570); test: CA inhibitory activity, spectrophotometric p-NPA assay; format: biochemical; conditions: p-NPA substrate, pH 7.5, 25 °C, triplicate; read-out: IC50 (µM) ± SD hCA XII
Sequence of hCA XII (O43570 25-354): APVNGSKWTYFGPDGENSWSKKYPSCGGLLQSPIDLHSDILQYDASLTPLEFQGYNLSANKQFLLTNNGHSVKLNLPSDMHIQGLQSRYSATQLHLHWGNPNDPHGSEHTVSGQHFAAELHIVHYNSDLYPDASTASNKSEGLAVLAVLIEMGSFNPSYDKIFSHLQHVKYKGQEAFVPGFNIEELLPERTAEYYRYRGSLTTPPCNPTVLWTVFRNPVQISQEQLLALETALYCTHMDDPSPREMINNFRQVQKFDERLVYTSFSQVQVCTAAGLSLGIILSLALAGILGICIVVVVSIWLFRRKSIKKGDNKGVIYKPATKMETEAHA

Molecule `Cc1ccc(-c2nn(-c3ccc(S(N)(=O)=O)cc3)cc2-c2nnc(N)s2)cc1` [Compound 10, 4-[4-(5-Amino-1,3,4-thiadiazol-2-yl)-3-(p-tolyl)-1H-pyrazol-1-yl] benzenesulfonamide] has an inhibition at 10 µM (A549/ATCC) of under 5%, an inhibition at 10 µM (EKVX) of 10.5% and an inhibition at 10 µM (HOP-62) of under 5%. It also gave an inhibition at 10 µM (HOP-92) of 30.8%, an inhibition at 10 µM (NCI-H226) of 5.79% and an inhibition at 10 µM (NCI-H23) of 10.4%. For the same molecule, the inhibition at 10 µM (NCI-H322M) was under 5%, the inhibition at 10 µM (NCI-H460) was under 5% and the inhibition at 10 µM (NCI-H522) was 15.3%. For the same molecule, the inhibition at 10 µM (COLO 205) was under 5%, the inhibition at 10 µM (HCC-2998) was under 5% and the inhibition at 10 µM (HCT-116) was under 5%. It also gave an inhibition at 10 µM (HCT-15) of under 5%, an inhibition at 10 µM (KM12) of under 5% and an inhibition at 10 µM (SW-620) of under 5%. For the same molecule, the inhibition at 10 µM (SF-268) was under 5%, the inhibition at 10 µM (SF-295) was under 5% and the inhibition at 10 µM (SF-539) was 15.6%. It also gave an inhibition at 10 µM (SNB-19) of 7.72%, an inhibition at 10 µM (SNB-75) of 19.5% and an inhibition at 10 µM (U251) of 9.42%. The inhibition at 10 µM (LOX IMVI) was 11.8%, the inhibition at 10 µM (M14) was under 5% and the inhibition at 10 µM (MALME-3M) was under 5%. It also gave an inhibition at 10 µM (MDA-MB-435) of under 5%, an inhibition at 10 µM (SK-MEL-28) of under 5% and an inhibition at 10 µM (SK-MEL-2) of under 5%. It also gave an inhibition at 10 µM (SK-MEL-5) of 18.5%, an inhibition at 10 µM (UACC-257) of 5.16% and an inhibition at 10 µM (IGROV1) of under 5%. It also gave an inhibition at 10 µM (NCI/ADR-RES) of under 5%, an inhibition at 10 µM (OVCAR-3) of under 5% and an inhibition at 10 µM (OVCAR-4) of under 5%. It also gave an inhibition at 10 µM (OVCAR-5) of under 5%, an inhibition at 10 µM (OVCAR-8) of under 5% and an inhibition at 10 µM (SK-OV-3) of under 5%. For the same molecule, the inhibition at 10 µM (A498) was 15.5%, the inhibition at 10 µM (ACHN) was under 5% and the inhibition at 10 µM (CAKI-1) was 12.1%. The inhibition at 10 µM (RXF 393) was 9.9%, the inhibition at 10 µM (SN12C) was under 5% and the inhibition at 10 µM (TK-10) was 15.4%. It also gave an inhibition at 10 µM (UO-31) of 7.96%, an inhibition at 10 µM (DU-145) of under 5% and an inhibition at 10 µM (PC-3) of 8.5%. The IC50 (hCA XII) was 1.14 µM and 1.15 µM.

`Cc1ccc(-c2nn(-c3ccc(S(N)(=O)=O)cc3)cc2-c2n[nH]c(=S)[nH]2)cc1` [Compound 11, 4-[4-(5-Mercapto-1H-1,2,4-triazol-3-yl)-3-(p-tolyl)-1H-pyrazol-1-yl] benzenesulfonamide] was tested, and the inhibition at 10 µM (A549/ATCC) was under 5%, the inhibition at 10 µM (EKVX) was under 5% and the inhibition at 10 µM (HOP-62) was under 5%. For the same molecule, the inhibition at 10 µM (HOP-92) was under 5%, the inhibition at 10 µM (NCI-H226) was under 5% and the inhibition at 10 µM (NCI-H23) was under 5%. The inhibition at 10 µM (NCI-H322M) was under 5%, the inhibition at 10 µM (NCI-H460) was under 5% and the inhibition at 10 µM (NCI-H522) was under 5%. It also gave an inhibition at 10 µM (COLO 205) of under 5%, an inhibition at 10 µM (HCC-2998) of under 5% and an inhibition at 10 µM (HCT-116) of under 5%. The inhibition at 10 µM (HCT-15) was under 5%, the inhibition at 10 µM (KM12) was under 5% and the inhibition at 10 µM (SW-620) was under 5%. It also gave an inhibition at 10 µM (SF-268) of 9.56%, an inhibition at 10 µM (SF-295) of 9.95% and an inhibition at 10 µM (SF-539) of 8.18%. For the same molecule, the inhibition at 10 µM (SNB-19) was 13%, the inhibition at 10 µM (SNB-75) was 23.9% and the inhibition at 10 µM (U251) was 5.33%. It also gave an inhibition at 10 µM (LOX IMVI) of 13.5%, an inhibition at 10 µM (M14) of under 5% and an inhibition at 10 µM (MALME-3M) of under 5%. For the same molecule, the inhibition at 10 µM (MDA-MB-435) was under 5%, the inhibition at 10 µM (SK-MEL-28) was under 5% and the inhibition at 10 µM (SK-MEL-2) was under 5%. It also gave an inhibition at 10 µM (SK-MEL-5) of under 5%, an inhibition at 10 µM (UACC-257) of under 5% and an inhibition at 10 µM (IGROV1) of under 5%. It also gave an inhibition at 10 µM (NCI/ADR-RES) of under 5%, an inhibition at 10 µM (OVCAR-3) of 11.4% and an inhibition at 10 µM (OVCAR-4) of 10.1%. The inhibition at 10 µM (OVCAR-5) was under 5%, the inhibition at 10 µM (OVCAR-8) was under 5% and the inhibition at 10 µM (SK-OV-3) was under 5%. It also gave an inhibition at 10 µM (A498) of under 5%, an inhibition at 10 µM (ACHN) of under 5% and an inhibition at 10 µM (CAKI-1) of 11.4%. The inhibition at 10 µM (RXF 393) was 10.1%, the inhibition at 10 µM (SN12C) was 7.65% and the inhibition at 10 µM (TK-10) was under 5%. It also gave an inhibition at 10 µM (UO-31) of under 5%, an inhibition at 10 µM (DU-145) of under 5% and an inhibition at 10 µM (PC-3) of under 5%. The IC50 (hCA XII) was 0.33 µM and 0.332 µM.
